# Results from patent US9056067B2, “Pharmaceutical composition for enhancing immunity, and extract of Poria” (Sinphar Pharmaceutical Co., Ltd., priority 2003, dated 2015).
# Values joined by “and” are separate entries in the source; they are usually repeats but may differ in a detail not shown here. Identical values can stand only once.
# What was measured:
# IFN-γ = IFN-γ secretion by Con A-stimulated spleen cells (ELISA) after oral administration; assay type: in vivo, mice; settings: for IFN-γ secretion by spleen cell: Con A; for Dose with significantly augmented IFNγ secretion by ConA-stimulated splenic T cells: oral
# Method: (§1) For the drug treatment, the animals were divided into four groups and oral administration with 1 ml of PCM, ranging from 10, 40 to 80 mg/kg/day, for four days. […] The control group was the mice feeding with an equal volume of saline (0.85% of NaCl). Mice were sacrificed at day five, and both the serum and spleen cells were collected. The sera were subsequently used to measure the concentration of IgG, IgM and IgA. The spleen cells were plated onto a 100 mm diameter culture plate and incubated at 37° C. for three hours. The non-adherent cells containing T-lymphocytes, B-lymphocytes and NK cells were collected and properly diluted as described in each assay.
# (§2) The mouse to be sacrificed was cervical dislocated and sterilized with 70% ethanol. The cardiac punctuation was performed first to withdraw the blood. After the haemagglutination, the blood sample was subjected to centrifugation and the serum was collect. For isolation of spleen cells, the peritoneum was opened to remove the spleen. The fresh spleen was transferred to a culture plate containing 10 ml of RPMI-1640 culture medium. The spleen was then ground over a fine mesh to release the spleen cells. The spleen cells suspending in the medium were then removed and transferred to a 50-ml conical centrifuge tube. The tube was subjected to centrifugation at 1300 rpm for 10 min. The supernatant was discarded and the pellet was re-suspended in 1 ml of cold RBC lysing buffer containing EDTA-NH4Cl. The cells were incubated at room temperature for 10 min, followed by washing the cells three times with culture medium by centrifugation. The spleen cells were plated onto a 100 mm diameter culture plate and incubated at 37° C. for three hours. The non-adherent cells containing T-lymphocytes, B-lymphocytes and NK cells were collected and properly diluted as described in each assay.
# (§3) For the quantitative analysis of IFN-γ and IL-10, the spleen cells (1×10^6 cells/ml) were cultured in a medium containing RPMI 1640 supplemented with 10% fetal bovine serum (FBS), 2 mM L-glutamine, antibiotics and 1 μg/ml concanavalin A (Con A) for 3 days. Con A is one of the polyclonal activators for T lymphocyte. Culture spleen cell supernatants were collected. The IFNγ and IL-10 concentrations were measured using a cytokine ELISA set (Cyto Set ELISA kit) purchased from R&D Systems (MN, USA).
# (§4) Cyto Set ELISA was performed as follows: A 96-well microtiter plate (Nunc-Immuno Plate, MaxiSorp, Nunc, Denmark) was precoated with capture antibodies at 4° C. overnight. The capture antibody was a rat monoclonal antibody to mouse IL-10. The samples to be tested and standard IL-10 ranged from 500 pg/ml to 15.6 pg/ml were added (100 μl/well). The plate was then incubated at 37° C. for 20 min. At the end of incubation, the plate was washed five times, followed by adding the biotinylated goat anti IL-10 polyclonal antibody. The color was developed by incubating the plate with a HRP-conjugated streptoavidin (Zymed, CA, USA), followed by a substrate solution containing hydrogen peroxide and tetramethylbenzidine (TMB). The reaction continued for 30 min at room temperature, and was stopped by adding 100 μl of 2N of sulfuric acid. The absorbence at 450 nm in each well was read using an ELISA reader (EL311, BioTek, Winooski, Vt.), and the data was analyzed using log-logit model.
# Cyto Set ELISA of IFN-γ was similar to that of IL-10, except that the capture antibody was a rat monoclonal antibody to mouse IFN-γ, and secondary antibody was biotinylated goat anti IFN-γ polyclonal antibody.
# (§5) TH1-type cytokines, such as interleukin-2 (IL-2), interferon-γ (IFN-γ) induces the cellular immune response. Whereas, TH2-type cytokines, such as interleukin-4 (IL-4), interleukin-5 (IL-5), interleukin-6 (IL-6), stimulates the B lymphocyte-mediated humoral immune response. […] Spleen cells isolated from the mice treated with PCM and its purified components, such as PCM-K1, -K2, -K3 and K4, were cultured for five days in the presence of ConA. […]
# IL-10 = IL-10 secretion by Con A-stimulated spleen cells (ELISA) after oral administration; assay type: in vivo, mice
# Method: as §1, §2, §3, §4
# as §5, with “ConA. The amount of interferon-γ (IFNγ; TH1-type cytokine) and interleukin-10 (IL-10; TH2-type cytokine) secreted by the spleen T lymphocytes was measured (Table 7.1 & Table 7.2).” for “ConA.”
# [1] = oral 10 mg/kg/day for four days
# [2] = oral 20 mg/kg/day for four days
SMILES,IFN-γ secretion by spleen cell (IFN-γ; oral 5 mg/kg/day for four days) [pg/mL],IFN-γ secretion by spleen cell (IFN-γ; [1]) [pg/mL],IFN-γ secretion by spleen cell (IFN-γ; [2]) [pg/mL],Dose with significantly augmented IFNγ secretion by ConA-stimulated splenic T cells (IFN-γ; listed as PCM-K3),IL-10 secretion by spleen cell (IL-10; oral 5 mg/kg/day for four days) [pg/mL],IL-10 secretion by spleen cell (IL-10; [1]) [pg/mL],IL-10 secretion by spleen cell (IL-10; [2]) [pg/mL],Dose with significantly augmented IFNγ secretion by ConA-stimulated splenic T cells (IFN-γ) [mg/kg/day]
C=C(CC[C@@H](C(=O)O)[C@H]1[C@H](O)C[C@@]2(C)C3=CC[C@H]4C(C)(C)C(=O)CC[C@]4(C)C3=CC[C@]12C)C(C)C [K3],917.07 ± 130.41,449.74 ± 100.67,176.20 ± 45.96,5 mg/kg/day and 10 mg/kg/day,262.09 ± 108.41,86.48 ± 33.26,98.74 ± 27.05,
C=C(CCC(C(=O)O)C1C(O)CC2(C)C3=CCC4C(C)(CCC(O)C4(C)C)C3=CCC12C)C(C)C (centres unmarked) [K4],240.45 ± 107.83,252.26 ± 103.76,292.00 ± 77.77,,128.91 ± 45.46,197.39 ± 68.73,155.91 ± 26.16,20
